Reference: patent publication US12577213B2 (NINGBO COMBIREG PHARMACEUTICAL TECHNOLOGY CO., LTD., priority 2020, dated 2026)
Like-named read-outs stand apart in the source and are kept apart here.

Assays:
786-0 (renal cancer) = assay: NCI method SRB growth inhibition, 786-0; type: cell-based; details: Homo sapiens; 786-0, treated 48 hours, SRB stain
Source text: (§1) In this embodiment, the method of National Cancer Institute (NCI) was used to evaluate the anti-tumor activity of the embodiment compounds in the present disclosure. Nine representative cell lines were selected for activity evaluation, including A549 (non-small cell lung cancer), HCT116 (colon cancer), SF295 (central nervous system tumor), LOX-IMVI (melanoma), 786-0 (renal cancer), K562 (leukemia), PC-3 (prostate cancer), OVCAR-3 (ovarian cancer) and HS 578T (breast cancer).
(§2) The specific method was as follows: 60 tumor cell lines of 9 kinds of human cancers were used to evaluate the inhibitory activity of the compound in vitro. A test group, a parallel control group and a vehicle control group were set up. The parallel control group was fixed immediately before the compound was added; the cells in the test group were fixed after being treated with the compound for 48 hours; the vehicle control group was fixed after an equal volume of complete medium was added for 48 hours. Sulforhodamine B (SRB) was used to stain, and the OD value was measured at a wavelength of 515 nm. The specific calculation method was as follows: the OD value of the parallel control group was recorded as Tz, the OD value of the vehicle control group was recorded as C, and the OD value of the test group was recorded as (Ti). If Ti≥Tz, it means that the cells still grow after the drug was added, and the growth rate %=[(Ti−Tz)/(C−Tz)]×100; if Ti<Tz, it means that the cells are killed after the drug was added, and the growth rate %=[(Ti−Tz)/Tz]×100. Three parameters were used to evaluate the anti-tumor activity of compounds in this method: 50% growth inhibitory concentration (GI50): i.e. the compound concentration at [(Ti−Tz)/(C−Tz)]×100=50; complete growth inhibitory concentration (TGI): the compound concentration at Ti=Tz; the drug concentration required to kill 50% of the cells (LC50): i.e. the compound concentration at [(Ti−Tz)/Tz]×100=−50.
(§3) The inhibitory activities of the embodiment compounds on nine representative tumor cell lines were listed in detail in Table 1. Wherein, the GI50 value means “50% growth inhibition rate”, that is, the concentration of the compound to be tested when it can inhibit […] of cell growth; “ND” means not detected.

HCT116 (colon cancer) = assay: NCI method SRB growth inhibition, HCT116; type: cell-based; details: Homo sapiens, HCT-116; HCT116, treated 48 hours, SRB stain
Source text: as §1, §2, §3

[1] = tested on: SF295 (central nervous system tumor); assay: NCI method SRB growth inhibition, SF295; type: cell-based; details: Homo sapiens, SF-295; SF295, treated 48 hours, SRB stain
Source text: as §1, §2, §3

OVCAR-3 (ovarian cancer) = assay: NCI method SRB growth inhibition, OVCAR-3; type: cell-based; details: Homo sapiens; OVCAR-3, treated 48 hours, SRB stain
Source text: as §1, §2, §3

LOX-IMVI (melanoma) = assay: NCI method SRB growth inhibition, LOX-IMVI; type: cell-based; details: Homo sapiens, treated 48 hours, SRB stain
Source text: as §1, §2, §3

[2] = tested on: breast cancer cell line SUM159 sphere; assay: Breast cancer stem cell sphere formation; type: cell-based, human; details: 50 nM
Description: The inhibitory effects of embodiment compounds 5, 7, 11, 13, 14, 20 and 21 on the formation of breast cancer cell line SUM159 sphere are described as follows.
The breast cancer cell line SUM159 sphere was cultured with serum-free medium in an ultra-low adsorption plate, the basal medium was DMEM/F12 (without phenol red), and B27 (without vitamin A) (1×), EGF (20 ng/ml), bFGF (20 ng/ml) and insulin (insulin, 5 ug/ml) were added.
An equal number (4000) of SUM159 cells per well were inoculated into an ultra-low adsorption 24 plate, and the sphere was photographed after 5 days of culture, replaced with fresh medium, and treated with drugs at certain concentrations, respectively. Compounds 5, 7, 11, 13, 14, 20 and 21 were evaluated in this experiment at 50 nM, respectively. The effect of the drug on the sphere phenotype could be observed after about 3 days of drug treatment. The sphere was photographed again after 5 days of drug treatment, and then the sphere was passaged. The sphere was photographed again after 7 days of passage.
The differences of the photographs taken in three different stages were counted and compared, and the killing effect of the tested compounds on SUM159 sphere was evaluated through the differences of sphere formation after passage, thus reflecting the inhibitory effects of different compounds on breast cancer stem cells.

[3] = tested on: A549 (non-small cell lung cancer); assay: NCI method SRB growth inhibition, A549; type: cell-based; details: Homo sapiens; A549, treated 48 hours, SRB stain
Source text: as §1, §2, §3

K562 (leukemia) = assay: NCI method SRB growth inhibition, K562; type: cell-based; details: Homo sapiens; K562, treated 48 hours, SRB stain
Source text: as §1, §2, §3

PC-3 (prostate cancer) = assay: NCI method SRB growth inhibition, PC-3; type: cell-based; details: Homo sapiens; PC-3, treated 48 hours, SRB stain
Source text: as §1, §2, §3

HS 578T (breast cancer) = assay: NCI method SRB growth inhibition, HS 578T; type: cell-based; details: Homo sapiens, HS578T, treated 48 hours, SRB stain
Source text: as §1, §2, §3

[4] = Liver microsomes stability; type: in vitro ADME, human; details: 1 μM compound, 1 mg/mL human liver microsomes, 1 mM NADPH; for half-life at 1 μM: read-out: T½ of HLM
Description: The compound to be tested with final concentration of 1 μM was incubated with 1 mg/mL of human liver microsomes and 1 mM of NADPH, and a group without NADPH was set as a negative control. The reaction mixture was quenched with methanol at five time points of 0, 5, 15, 30 and 60 min, respectively, then centrifuged at 2500 rpm for 20 min to precipitate proteins, and the resulting supernatant was analyzed by LC-MS/MS. The data was analyzed and the k value and half-life T1/2 was calculated, T1/2(min)=0.693/k.
Wherein, compounds a, b and c are active compounds disclosed in patent No. ZL201610154581.3.

Row | Compound | GI50 (786-0 (renal cancer)) | GI50 (HCT116 (colon cancer)) | GI50 [1] | GI50 (OVCAR-3 (ovarian cancer)) | GI50 (LOX-IMVI (melanoma)) | killing effect on SUM159 sphere [2] | formation of the sphere after cell passage ([2]; 5 days of drug treatment, then passage) | GI50 [3] | GI50 (K562 (leukemia)) | GI50 (PC-3 (prostate cancer)) | GI50 (HS 578T (breast cancer)) | half-life at 1 μM [4] | microsomal CLint at 1 μM ([4]; human, human liver microsomes) | microsomal CLint at 1 μM [4] | half-life at 1 μM ([4]; human, human liver microsomes) | T½ of HLM [4]
1 | [2H]C([2H])([2H])Oc1cc(C(=O)Nc2cc3c(cc2Oc2cc(C)cc(C)c2)C(=O)N[C@@H](CC(=O)N(C([2H])([2H])[2H])C([2H])([2H])[2H])C(=O)N3)c(Br)c(OC([2H])([2H])[2H])c1OC([2H])([2H])[2H] [Compound 21, (S)-2-bromo-N-[3-[2-[bis(trideuteromethyl)amino]-2-oxoethyl]-7-(3,5-dimethylphenoxy)-2,5-dioxo-2,3,4,5-tetrahydro-1H-benzo[e][1,4]diazepin-8-yl]-3,4,5-tris(trideuteromethoxy)benzamide] | 12.9 nM | < 5 nM | 11.3 nM | < 5 nM | < 5 nM | strong killing effect | significantly reduced | 6.1 nM | < 5 nM | < 5 nM | – | – | – | – | – | –
2 | [2H]C([2H])([2H])Oc1cc(C(=O)Nc2cc3c(cc2Oc2cc(C)cc(C)c2)C(=O)N(C)[C@@H](CC(=O)N(C)OC)C(=O)N3)c(Br)c(OC([2H])([2H])[2H])c1OC([2H])([2H])[2H] [Compound 32] | < 5 nM | < 5 nM | 5 nM | < 5 nM | < 5 nM | – | – | < 5 nM | < 5 nM | < 5 nM | < 5 nM | 24.7 min | 28.1 µL/min/mg | – | – | –
3 | [2H]C([2H])([2H])Oc1cc(C(=O)Nc2cc3c(cc2Oc2cc(C)cc(C)c2)C(=O)N(C)[C@@H](CC(=O)N(C)OC)C(=O)N3)c(Cl)c(OC([2H])([2H])[2H])c1OC([2H])([2H])[2H] [Compound 36] | 11.9 nM | < 5 nM | 10 nM | < 5 nM | < 5 nM | – | – | < 5 nM | < 5 nM | < 5 nM | 8.5 nM | – | – | 6.8 µL/min/mg | 102 min | –
4 | [2H]C([2H])([2H])Oc1cc(C(=O)Nc2cc3c(cc2Oc2cc(C)cc(C)c2)C(=O)N[C@@H](CC(=O)N(C)O)C(=O)N3)c(Br)c(OC([2H])([2H])[2H])c1OC([2H])([2H])[2H] [Compound 31] | 28.1 nM | 17 nM | 58 nM | < 5 nM | < 5 nM | – | – | < 5 nM | < 5 nM | < 5 nM | 8.6 nM | 43.3 min | 16 µL/min/mg | – | – | –
5 | [2H]C([2H])([2H])Oc1cc(C(=O)Nc2cc3c(cc2Oc2cc(C)cc(C)c2)C(=O)N[C@@H](CC(=O)C(C)(C)P(=O)(OC)OC)C(=O)N3)c(Br)c(OC([2H])([2H])[2H])c1OC([2H])([2H])[2H] [Compound 26, (S)-dimethyl-(4-8-(2-bromo-3,4,5-tris(trideuteromethoxy)benzoyl)-7-(3,5-dimethylphenoxy)-2,5-dioxo-2,3,4,5-tetrahydro-1H-benzo[e][1,4]diazepin-3-yl)-2-methyl-3-oxobutyl-2-yl)dimethyl phosphate] | 57.4 nM | 14.2 nM | 42.7 nM | 6 nM | 6.2 nM | – | – | 13 nM | < 5 nM | < 5 nM | 10 nM | 217 min | 3.2 µL/min/mg | – | – | –
6 | [2H]C([2H])([2H])Oc1cc(C(=O)Nc2cc3c(cc2Oc2cc(C)cc(C)c2)C(=O)N(C)[C@@H](CC(=O)N2CCN(C)CC2)C(=O)N3)c(Br)c(OC([2H])([2H])[2H])c1OC([2H])([2H])[2H] [Compound 28] | 66 nM | < 5 nM | 18 nM | < 5 nM | < 5 nM | – | – | < 5 nM | < 5 nM | < 5 nM | < 5 nM | 41.8 min | 16.8 µL/min/mg | – | – | –
7 | [2H]C([2H])([2H])c1c(OC)cc(C(=O)Nc2cc3c(cc2Oc2cc(C)cc(C)c2)C(=O)N[C@@H](CC(=O)N(CC)CC)C(=O)N3)c(Cl)c1OC [Compound 3, (S)-2-chloro-N-[3-[2-(diethylamino)-2-oxoethyl]-7-(3,5-dimethylphenoxy)-2,5-dioxo-2,3,4,5-tetrahydro-1H-benzo[e][1,4]diazepin-8-yl]-3,5-dimethoxy-4-(trideuteromethyl)benzamide] | 110 nM | 11.2 nM | 53.2 nM | 28.6 nM | 18.4 nM | – | – | < 5 nM | 8.4 nM | 43.9 nM | 91.9 nM | – | – | 18.1 µL/min/mg | 38 min | 38.3 min
8 | [2H]C([2H])([2H])N1C(=O)c2cc(Oc3cc(C)cc(C)c3)c(NC(=O)c3cc(OC)c(OC)c(OC)c3Cl)cc2NC(=O)[C@@H]1CC(=O)N(C([2H])([2H])C([2H])([2H])[2H])C([2H])([2H])C([2H])([2H])[2H] [Compound 19, (S)-2-chloro-N-[3-[2-[bis(pentadeuteroethyl)amino]-2-oxoethyl]-7-(3,5-dimethylphenoxy)-4-(trideuteromethyl)-2,5-dioxo-2,3,4,5-tetrahydro-1H-benzo[e][1,4]diazepin-8-yl]-3,4,5-trimethoxybenzamide] | 19.7 nM | 5 nM | 11.8 nM | 6.2 nM | < 5 nM | – | – | 5.9 nM | < 5 nM | < 5 nM | 80.7 nM | – | – | 21.1 µL/min/mg | 32.9 min | –
